Measured values reported in US20230355647A1, “Marker for determining anti-cancer effects of mitochondrial oxidative phosphorylation pathway inhibitor” (NANJING SHIJIANG MEDICINE TECHNOLOGY CO., LTD, priority 2020, published 2023).

Experiments:
Format in all cases: cell-based
SNU-398 = test: Cell viability (CellTiter-Glo), SNU-398; settings: Homo sapiens; SNU-398 cell line, 3-4 days of culture
Method: (§1) Cell viability was detected using the Promega CellTiter-Glo kit, the kit reflected cell viability by directly measuring intracellular ATP content. The inhibitory effect (IC50 value) of Gboxin, a mitochondrial oxidative phosphorylation pathway inhibitor, on different tumor cell lines was tested in the Example. The name, source, and culture condition of each tumor cell line were as follows:
Cell line SNU-398 (ATCC, No. CRL-2233) was cultured in 10% fetal bovine serum-containing RPMI1640 medium (+P/S).
(§2) The above tumor cells were cultured in the relevant medium (+P/S), and incubated for 3 h, then the gradient diluted Gboxin was added, and IC50 (50% inhibiting concentration) was measured after 3-4 days of culture.

OCI-AML-4 = test: Cell viability (CellTiter-Glo), OCI-AML-4; settings: OCI-AML-4 cell line, 3-4 days of culture
Method: as §1
Cell line OCI-AML-4 (DSMZ, No. ACC-729) was cultured in alpha-MEM medium containing 20% fetal bovine serum and 20% volume fraction of 5637 cell line adjusted medium (+P/S).
as §2

OCI-M1 = test: Cell viability (CellTiter-Glo), OCI-M1; settings: OCI-M1 cell line, 3-4 days of culture
Method: as §1
Cell line OCI-M1 (DSMZ, No. ACC-529) was cultured in 20% fetal bovine serum-containing IMDM medium (+P/S).
as §2

OCI-LY-19 = test: Cell viability (CellTiter-Glo), OCI-LY-19; settings: Homo sapiens, OCI-LY19; OCI-LY-19 cell line, 3-4 days of culture
Method: as §1
Cell line OCI-LY-19 (DSMZ, No. ACC-528) was cultured in 80-90% alpha-MEM medium containing 10-20% h.i. FBS (+P/S).
as §2

MIA PaCa-2 = test: Cell viability (CellTiter-Glo), MIA PaCa-2; settings: Homo sapiens; MIA PaCa-2 cell line, 3-4 days of culture
Method: as §1
Cell line MIA PaCa-2 (ATCC, No. CRL-1420) was cultured in 10% fetal bovine serum-containing DMEM medium (+P/S).
as §2

C3A = test: Cell viability (CellTiter-Glo), C3A; settings: Homo sapiens; C3A cell line, 3-4 days of culture
Method: as §1
Cell line C3A (ATCC, No. CRL-10741) was cultured in 10% fetal bovine serum-containing EMEM medium (+P/S).
as §2

## CCc1n(CC(=O)O[C@@H]2C[C@H](C)CC[C@H]2C(C)C)c2ccccc2[n+]1C.[Cl-] [Gboxin]
SNU-398
  IC50: 4.17 µM
OCI-AML-4
  IC50: 3.34 µM
OCI-M1
  IC50: 21.7 µM
OCI-LY-19
  IC50: 2.51 µM
MIA PaCa-2
  IC50: 2.57 µM
C3A
  IC50: 25.7 µM
